Measured values published in patent US20180141962A1, “AZACARBAZOLE BTK INHIBITORS” (MERCK SHARP & DOHME CORP., priority 2015, published 2018).

Target: T1, BTK enzyme (recombinant full-length BTK, hBTK) (Homo sapiens, UniProt Q06187)
T1 construct: recombinant protein from baculovirus-transfected Sf9 cells: full-length BTK, 6HIS-tag cleaved; 6HIS (cleaved yes); made in house; host or cells: baculovirus-transfected Sf9 cells
Test: Btk enzyme activity assay, LANCE TR-FRET
Assay type: biochemical
Settings: 50 pM hBTK, 2 μM biotin-A5-peptide, 25 μM ATP; 60 minute compound & enzyme incubation; 120 minutes reaction; read-out: BTK binding potency IC50

T1 sequence (Q06187 whole entry): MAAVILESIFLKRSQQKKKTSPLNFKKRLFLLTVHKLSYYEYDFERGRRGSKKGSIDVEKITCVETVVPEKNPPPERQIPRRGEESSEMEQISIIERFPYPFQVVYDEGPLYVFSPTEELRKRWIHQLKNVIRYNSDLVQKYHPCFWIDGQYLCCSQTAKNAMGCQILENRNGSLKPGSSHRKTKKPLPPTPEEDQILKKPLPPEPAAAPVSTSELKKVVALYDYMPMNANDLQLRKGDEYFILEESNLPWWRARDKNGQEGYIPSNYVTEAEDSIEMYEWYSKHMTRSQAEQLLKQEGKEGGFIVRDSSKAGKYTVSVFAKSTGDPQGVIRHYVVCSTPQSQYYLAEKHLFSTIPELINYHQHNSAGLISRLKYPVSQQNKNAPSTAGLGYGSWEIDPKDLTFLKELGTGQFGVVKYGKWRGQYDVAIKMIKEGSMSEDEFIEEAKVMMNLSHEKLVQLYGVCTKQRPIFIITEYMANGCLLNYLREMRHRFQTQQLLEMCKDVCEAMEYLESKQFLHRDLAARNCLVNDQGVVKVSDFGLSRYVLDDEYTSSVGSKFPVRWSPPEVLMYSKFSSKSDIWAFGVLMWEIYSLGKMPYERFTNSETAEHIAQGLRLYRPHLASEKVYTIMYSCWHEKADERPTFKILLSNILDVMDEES

IC50 [nM]	SMILES
59.9	CN1CC[C@@]2(CCCN(c3ncc(C(N)=O)c4[nH]c5cc(-c6ccc(C(O)C(F)(F)F)cc6)ccc5c34)C2)C1=O (stereo partly drawn) [Example 78, 1-[(5R)-2-methyl-1-oxo-2,7-diazaspiro[4.5]dec-7-yl]-7-[4-(2,2,2-trifluoro-1-hydroxyethyl)phenyl]-5H-pyrido[4,3-b]indole-4-carboxamide]
63	CN1CC[C@@]2(CCCN(c3ncc(C(N)=O)c4[nH]c5cc(-c6cccc(C(O)C(F)(F)F)c6)ccc5c34)C2)C1=O (stereo partly drawn) [Example 79, 1-[(5R)-2-methyl-1-oxo-2,7-diazaspiro[4.5]dec-7-yl]-7-[3-(2,2,2-trifluoro-1-hydroxyethyl)phenyl]-5H-pyrido[4,3-b]indole-4-carboxamide]
12.7	Cc1noc(C)c1-c1ccc2c(c1)[nH]c1c(C(N)=O)cnc(N3CCC[C@@]4(CCN(C)C4=O)C3)c12 [Example 80, 7-(3,5-dimethylisoxazol-4-yl)-1-[(5R)-2-methyl-1-oxo-2,7-diazaspiro[4.5]dec-7-yl]-5H-pyrido[4,3-b]indole-4-carboxamide]
5.5	COC(=O)CC1CCC(c2ccc3c(c2)[nH]c2c(C(N)=O)cnc(N4CCC[C@@]5(CCN(C)C5=O)C4)c23)CC1 (stereo partly drawn) [Example 81, methyl (4-{4-carbamoyl-1-[(5R)-2-methyl-1-oxo-2,7-diazaspiro[4.5]dec-7-yl]-5H-pyrido[4,3-b]indol-7-yl}cyclohexyl)acetate]
2.9	CN1CC[C@@]2(CCCN(c3ncc(C(N)=O)c4[nH]c5cc(C6CCC(CC(C)(C)O)CC6)ccc5c34)C2)C1=O (stereo partly drawn) [Example 82, 7-[4-(2-hydroxy-2-methylpropyl)cyclohexyl]-1-[(5R)-2-methyl-1-oxo-2,7-diazaspiro[4.5]dec-7-yl]-5H-pyrido[4,3-b]indole-4-carboxamide]
57.2	COC(=O)c1ccc2c(c1)[nH]c1c(C(N)=O)cnc(N3CCCC4(CCNC4=O)C3)c12 (stereo not drawn) [Example 83, Methyl 4-carbamoyl-1-(1-oxo-2,7-diazaspiro[4.5]decan-7-yl)-5H-pyrido[4,3-b]indole-7-carboxylate]
48.8	NC(=O)c1cnc(N2CCCC3(CCNC3=O)C2)c2c1[nH]c1ccc(C(=O)O)cc12 (stereo not drawn) [Example 84, 4-carbamoyl-1-(1-oxo-2,7-diazaspiro[4.5]dec-7-yl)-5H-pyrido[4,3-b]indole-8-carboxylic acid]
448	NC(=O)c1cnc(N2CCCC3(CCNC3=O)C2)c2c1[nH]c1cc(C(=O)O)ccc12 (stereo not drawn) [Example 85, 4-carbamoyl-1-(1-oxo-2,7-diazaspiro[4.5]dec-7-yl)-5H-pyrido[4,3-b]indole-7-carboxylic acid]
82.8	NC(=O)c1cnc(N2CCCC3(C2)NCCNC3=O)c2c1[nH]c1ccccc12 (stereo not drawn) [Example 87, 1-(5-oxo-1,4,8-triazaspiro[5.5]undecan-8-yl)-5H-pyrido[4,3-b]indole-4-carboxamide]
